Source: the NIST ThermoML archive (doi:10.1016/j.fluid.2012.01.014)

Test: cn = amount concentration of the nth substance listed, in mol/dm3
Settings: Ring tensiometer

CCCCCCCCCCCCCCCC[N+](C)(C)C.[Br-] [N,N,N-trimethyl-1-hexadecanaminium bromide] + O
surface tension liquid-gas [mN/m]
Settings | 293 K | 303 K | 313 K
c1 = 1e-08 | 72.79 | 71.2 | 69.6
c1 = 1e-07 | 72.78 | 71.19 | 69.59
c1 = 5.01e-07 | 72.73 | 71.16 | 69.56
c1 = 1e-06 | 72.66 | 71.11 | 69.52
c1 = 2e-06 | 72.54 | 71.03 | 69.45
c1 = 3.98e-06 | 72.31 | 70.86 | 69.3
c1 = 6.31e-06 | 72.1 | 70.69 | 69.16
c1 = 7.94e-06 | 71.91 | 70.53 | 69.02
c1 = 1e-05 | 71.73 | 70.37 | 68.88
c1 = 2e-05 | 70.97 | 69.62 | 68.22
c1 = 3.02e-05 | 70.31 | 68.93 | 67.61
c1 = 3.98e-05 | 69.72 | 68.3 | 67.04
c1 = 5.01e-05 | 69.2 | 67.72 | 66.51
c1 = 6.03e-05 | 68.81 | 67.18 | 66.01
c1 = 7.08e-05 | 68.48 | 66.67 | 65.54
c1 = 7.94e-05 | 68.06 | 66.2 | 65.1
c1 = 9.12e-05 | 67.15 | 65.75 | 64.68
c1 = 0.0001 | 66.41 | 65.32 | 64.28
c1 = 0.0002 | 60.86 | 60.52 | 59.45
c1 = 0.000302 | 54.74 | 54.35 | 53.95
c1 = 0.000398 | 50.39 | 50.02 | 49.72
c1 = 0.000501 | 47.02 | 46.83 | 46.15
c1 = 0.000603 | 44.27 | 44.12 | 43.53
c1 = 0.000708 | 41.94 | 41.82 | 41.22
c1 = 0.000794 | 39.92 | 39.75 | 39
c1 = 0.000891 | 38.15 | 38.01 | 37.25
c1 = 0.000912 | 37.9 | 37.8 | 37
c1 = 0.001 | 37.9 | 37.2 | 36.4
c1 = 0.002 | 37.8 | 37.14 | 36.4

CCCCCCCCCCCCOS(=O)(=O)[O-].[Na+] [sodium dodecyl sulfate] + O
surface tension liquid-gas [mN/m]
Settings | 293 K | 303 K | 313 K
c1 = 1e-08 | 72.8 | 71.2 | 69.6
c1 = 1e-07 | 72.9 | 71.19 | 69.6
c1 = 1e-06 | 72.79 | 71.17 | 69.58
c1 = 3.98e-06 | 72.78 | 71.15 | 69.56
c1 = 7.94e-06 | 72.76 | 71.14 | 69.53
c1 = 1e-05 | 72.75 | 71 | 69.51
c1 = 5.01e-05 | 72.69 | 70.81 | 69.48
c1 = 6.31e-05 | 72.46 | 70.59 | 69.27
c1 = 0.0001 | 72.24 | 70.01 | 69.05
c1 = 0.0002 | 71.62 | 69.29 | 67.85
c1 = 0.000631 | 68.1 | 66.62 | 65.14
c1 = 0.000794 | 66.25 | 65.21 | 64.01
c1 = 0.001 | 64.32 | 63.87 | 62.73
c1 = 0.002 | 57.43 | 57.02 | 55.94
c1 = 0.00398 | 49.72 | 49.52 | 48.45
c1 = 0.00631 | 43.37 | 42.98 | 41.7
c1 = 0.00794 | 38.88 | 38.34 | 36.91
c1 = 0.00832 | 38.4 | 38.21 | 36.42
c1 = 0.01 | 38.4 | 38.21 | 36.42

CCCCCCCCCCCCCC[N+](C)(C)C.[Br-] [tetradecyltrimethylammonium bromide] + O
surface tension liquid-gas [mN/m]
Settings | 293 K | 313 K
c1 = 1e-07 | 72.4 | 69.59
c1 = 5.01e-07 | 72.3 | 69.54
c1 = 1e-06 | 72.2 | 69.48
c1 = 5.01e-06 | 71.7 | 69.03
c1 = 1e-05 | 71.6 | 68.49
c1 = 5.01e-05 | 70.8 | 67.49
c1 = 0.0001 | 69.9 | 66.58
c1 = 0.0002 | 66.7 | 63.61
c1 = 0.000501 | 59.1 | 58.43
c1 = 0.000631 | 56.1 | 55.41
c1 = 0.000708 | 54.6 | 53.85
c1 = 0.000794 | 53.7 | 52.61
c1 = 0.000891 | 52.7 | 51.54
c1 = 0.001 | 51.9 | 50.21
c1 = 0.002 | 43.7 | 42.65
c1 = 0.00316 | 36.7 | 36.05
c1 = 0.00398 | 36.3 | 35.38
c1 = 0.00501 | 36.3 | 35.38
c1 = 0.00708 | 36.3 | 35.38
c1 = 0.01 | 36.3 | 35.38

CCCCCCCCCCCC[N+](C)(C)CC.[Br-] [dodecyl ethyl dimethylammonium bromide] + O
surface tension liquid-gas [mN/m]
Settings | 293 K | 303 K | 313 K
c1 = 1e-07 | 72.6 | 71.2 | 69.6
c1 = 5.01e-07 | 72.4 | 71.19 | 69.6
c1 = 1e-06 | 72.3 | 71.19 | 69.59
c1 = 5.01e-06 | 72.2 | 71.13 | 69.56
c1 = 1e-05 | 71.7 | 71.06 | 69.53
c1 = 5.01e-05 | 70.7 | 70.54 | 69.24
c1 = 0.0001 | 70 | 69.94 | 68.89
c1 = 0.000501 | 67.8 | 66.59 | 65.63
c1 = 0.001 | 65.1 | 63.91 | 62.94
c1 = 0.002 | 60.3 | 60.54 | 59.58
c1 = 0.00316 | 56.4 | 56.13 | 55.17
c1 = 0.00398 | 52.4 | 52.36 | 51.87
c1 = 0.00501 | 50 | 49.44 | 48.85
c1 = 0.00631 | 47.3 | 46.78 | 46.39
c1 = 0.00794 | 44.3 | 43.72 | 43.12
c1 = 0.00891 | 42.8 | 42.12 | 41.71
c1 = 0.01 | 41.5 | 40.73 | 39.82
c1 = 0.0251 | 40.9 | 40.01 | 39.43
c1 = 0.0501 | 40.6 | 39.82 | 38.75
c1 = 0.1 | 39.4 | 39 | 38.24

CCCCCCCCCCCC[N+](C)(C)Cc1ccccc1.[Br-] [benzenemethanaminium, N-dodecyl-N,N-dimethyl, bromide] + O
surface tension liquid-gas [mN/m]
Settings | 293 K | 303 K | 313 K
c1 = 1e-07 | 72.4 | 71.18 | 69.58
c1 = 5.01e-07 | 72.3 | 71.09 | 69.49
c1 = 1e-06 | 71.6 | 70.98 | 69.38
c1 = 5.01e-06 | 70.7 | 70.22 | 68.59
c1 = 1e-05 | 69.6 | 69.44 | 67.78
c1 = 5.01e-05 | 66.8 | 65.88 | 64.1
c1 = 0.0001 | 64.3 | 63.66 | 61.81
c1 = 0.000316 | 55.3 | 54.19 | 53.4
c1 = 0.000501 | 51.7 | 50.07 | 49.15
c1 = 0.001 | 46.2 | 44.48 | 43.37
c1 = 0.002 | 41.1 | 40 | 38.93
c1 = 0.00316 | 37.8 | 36.73 | 35.76
c1 = 0.00398 | 36 | 34.82 | 33.92
c1 = 0.00501 | 34.5 | 33.11 | 32.67
c1 = 0.00708 | 34.5 | 33.11 | 32.67
c1 = 0.01 | 34.4 | 33.11 | 32.67

O [water] + CCCCCCCCCCCCCCCC[N+](C)(C)C.[Br-]
c2 = 0
Settings | surface tension liquid-gas [mN/m]
293 K | 72.8
303 K | 71.2
313 K | 69.6

O [water] + CCCCCCCCCCCC[N+](C)(C)CC.[Br-]
c2 = 0
Settings | surface tension liquid-gas [mN/m]
293 K | 72.8
303 K | 71.2
313 K | 69.6
